Biological target: Cathepsin S (Homo sapiens, UniProt P25774)
Assay: Cathepsin S inhibition, fluorogenic peptide substrate kinetic assay
Type: biochemical
Conditions: Table II; Cathepsin S inhibition constant, pH5.5; read-out: Ki Cat. S
In short: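 Reactions were started with 50 μM (final) acetyl-His-Pro-Val-Lys-aminocarbamoylcoumarin, and hydrolysis was followed by fluorescence (ex 380/em 450 nm). Apparent inhibition constants from enzyme progress curves were converted to Ki for competitive inhibitors using substrate concentration and Km.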

Cathepsin S, sequence (P25774 115-331, species assumed): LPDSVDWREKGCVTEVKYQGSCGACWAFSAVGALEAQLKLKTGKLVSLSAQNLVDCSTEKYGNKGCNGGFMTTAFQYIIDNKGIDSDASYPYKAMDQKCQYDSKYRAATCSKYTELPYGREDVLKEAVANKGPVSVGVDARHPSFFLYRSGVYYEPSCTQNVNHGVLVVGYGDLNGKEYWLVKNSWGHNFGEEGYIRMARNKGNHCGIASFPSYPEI

Row | Ki | SMILES
1 | < 1000 nM | O=C(NCCN1CCc2cc(F)ccc21)[C@H](CC1CCCCC1)NS(=O)(=O)c1cc2ccccc2s1 [Compound 234, (S)-2-(Benzo[b]thiophene-2-sulfonylamino)-3-cyclohexyl-N-[2-(5-fluoro-2,3-dihydro-indol-1-yl)-ethyl]-propionamide]
2 | < 100 nM | C[C@@H](CN1CCc2cc(F)ccc21)NC(=O)[C@H](CC1CCCCC1)NS(=O)(=O)c1cccc(Cl)c1 [Compound 259, (S,S)-2-(3-Chloro-benzenesulfonylamino)-3-cyclohexyl-N-[2-(5-fluoro-2,3-dihydro-indol-1-yl)-1-methyl-ethyl]-propionamide]
3 | < 100 nM | CC(C)(C)C[C@H](NC(=O)OC(C)(C)C)C(=O)N[C@@H](CCS(C)(=O)=O)CN1CCc2cc(F)ccc21 [Compound 157, {1-(S)-[1-(S)-(5-Fluoro-2,3-dihydro-indol-1-ylmethyl)-3-methanesulfonyl-propylcarbamoyl]-3,3-dimethyl-butyl}-carbamic acid tert-butyl ester]
4 | < 100 nM | Cc1cccc(S(=O)(=O)N[C@@H](CC(C)(C)C)C(=O)N[C@@H](C)CN2CCc3cc(F)ccc32)c1 [Compound 265, (S,S)-4,4-Dimethyl-2-(toluene-3-sulfonylamino)-pentanoic acid [2-(5-fluoro-2,3-dihydro-indol-1-yl)-1-methyl-ethyl]-amide]
5 | < 1000 nM | CC(=O)N1CCC(Oc2ccc(C(=O)N[C@@H](CC3CCCCC3)C(=O)NCCN3CCc4cc(F)ccc43)cc2)CC1 [Compound 69, 4-(1-Acetyl-piperidin-4-yloxy)-N-(S)-{2-cyclohexyl-1-[2-(5-fluoro-2,3-dihydro-indol-1-yl)-ethylcarbamoyl]-ethyl}-benzamide]
6 | < 1000 nM | Cc1cccc(C(=O)N[C@@H](Cc2ccccc2)C(=O)NCCN2CCc3cc(F)ccc32)c1 [Compound 205, N-((S)-1-(2-(5-fluoroindolin-1-yl)ethylcarbamoyl)-2-phenylethyl)-3-methylbenzamide]
7 | < 1000 nM | O=C(NCCN1CCc2cc(F)ccc21)[C@H](CC1CCCCC1)NS(=O)(=O)c1scc(Br)c1Cl [Compound 224, (S)-2-(4-Bromo-3-chloro-thiophene-2-sulfonylamino)-3-cyclohexyl-N-[2-(5-fluoro-2,3-dihydro-indol-1-yl)-ethyl]-propionamide]
8 | < 1000 nM | O=C(N[C@@H](CC1CCCCC1)C(=O)NCCN1CCc2cc(F)ccc21)C1CC(=O)N(Cc2ccco2)C1 (stereo partly drawn) [Compound 74, 1-Furan-2-ylmethyl-5-oxo-pyrrolidine-3-carboxylic acid (S)-{2-cyclohexyl-1-[2-(5-fluoro-2,3-dihydro-indol-1-yl)-ethylcarbamoyl]-ethyl}-amide]
9 | < 1000 nM | C[C@@H](CNc1ccc(OC(F)(F)F)cc1)NC(=O)[C@H](CC1CCCCC1)NC(=O)O[C@@H]1CCN(C(=O)OC(C)(C)C)C1 [Compound 185, 3-(R)-{2-Cyclohexyl-1-(S)-[1-(S)-methyl-2-(4-trifluoromethoxy-phenylamino)-ethylcarbamoyl]-ethylcarbamoyloxy}-pyrrolidine-1-carboxylic acid tert-butyl ester]
10 | < 100 nM | C[C@@H](CNc1cc(F)cc(F)c1)NC(=O)[C@H](CC1CCCCC1)NC(=O)c1ccc(-c2cccc(F)c2)o1 [Compound 87, 5-(3-Fluoro-phenyl)-furan-2-carboxylic acid {2-cyclohexyl-1-(S)-[2-(3,5-difluoro-phenylamino)-1-(S)-methyl-ethylcarbamoyl]-ethyl}-amide]
11 | < 100 nM | C[C@@H](CNc1ccc(S(C)(=O)=O)cc1)NC(=O)[C@H](CC1CCCCC1)NC(=O)c1ccc(-c2cccc(F)c2)o1 [Compound 89, 5-(3-Fluoro-phenyl)-furan-2-carboxylic acid {2-cyclohexyl-1-(S)-[2-(4-methanesulfonyl-phenylamino)-1-(S)-methyl-ethylcarbamoyl]-ethyl}-amide]
12 | < 100 nM | Cc1cccc(S(=O)(=O)N[C@@H](CC(C)(C)C)C(=O)N[C@@H](CC(=O)O)CN2CCc3cc(F)ccc32)c1 [Compound 262, (S,S)-3-[4,4-Dimethyl-2-(toluene-3-sulfonylamino)-pentanoylamino]-4-(5-fluoro-2,3-dihydro-indol-1-yl)-butyric acid]
13 | < 10000 nM | Cc1cccc(C(=O)N[C@@H](Cc2ccccc2)C(=O)NC(C)(C)CN2CCc3cc(F)ccc32)c1 [Compound 28, N-{(1S)-[2-(5-Fluoro-2,3-dihydro-indol-1-yl)-1,1-dimethyl-ethylcarbamoyl]-2-phenyl-ethyl}-3-methyl-benzamide]
14 | < 100 nM | Cc1cccc(C(=O)N[C@@H](CC(C)C)C(=O)N[C@@H](CCC(N)=O)CN2CCc3cc(F)ccc32)c1 [Compound 44, (S,S)-N-{1-[3-Carbamoyl-1-(5-fluoro-2,3-dihydro-indol-1-ylmethyl)-propylcarbamoyl]-3-methyl-butyl}-3-methyl-benzamide]
15 | < 10000 nM | O=C(NCCN1CCc2cc(F)ccc21)[C@H](CC1CCCCC1)NS(=O)(=O)Cc1ccccc1 [Compound 242, (S)-3-Cyclohexyl-N-[2-(5-fluoro-2,3-dihydro-indol-1-yl)-ethyl]-2-phenylmethanesulfonylamino-propionamide]
16 | < 100 nM | Cc1cc(C(=O)N[C@@H](CC2CCCCC2)C(=O)NCCN2CCc3cc(F)ccc32)c(C(F)(F)F)o1 [Compound 78, 5-Methyl-2-trifluoromethyl-furan-3-carboxylic acid (S)-{2-cyclohexyl-1-[2-(5-fluoro-2,3-dihydro-indol-1-yl)-ethylcarbamoyl]-ethyl}-amide]
17 | < 100 nM | COc1cccc(C(=O)N[C@@H](CC2CCCCC2)C(=O)N[C@@H](COCc2ccccc2)CN2CCc3cc(F)ccc32)c1 [Compound 149, N-{1-(S)-[1-(R)-Benzyloxymethyl-2-(5-fluoro-2,3-dihydro-indol-1-yl)-ethylcarbamoyl]-2-cyclohexyl-ethyl}-3-methoxy-benzamide]
18 | < 100 nM | O=C(NC(C(=O)N[C@@H](CO)CN1CCc2cc(F)ccc21)c1ccc(Cl)cc1Cl)c1ccc(F)c(F)c1 (mixture of isomers) [Compound 208, N-(R,S)-((3-(5-fluoroindolin-1-yl)-1-hydroxypropan-2-(R)-ylcarbamoyl)(2,4-dichlorophenyl)methyl)-3,4-difluorobenzamide]
19 | < 100 nM | COc1ccc(NC[C@H](C)NC(=O)[C@H](CC2CCCCC2)NC(=O)c2ccc(-c3ccc(F)cc3)o2)cc1 [Compound 105, 5-(4-Fluoro-phenyl)-furan-2-carboxylic acid {2-cyclohexyl-1-(S)-[2-(4-methoxy-phenylamino)-1-(S)-methyl-ethylcarbamoyl]-ethyl}-amide]
20 | < 100 nM | O=C(N[C@@H](CC1CCCCC1)C(=O)NCCN1CCc2cc(F)ccc21)c1ccc(-c2ccccc2)s1 [Compound 82, 5-Phenyl-thiophene-2-carboxylic acid (S)-{2-cyclohexyl-1-[2-(5-fluoro-2,3-dihydro-indol-1-yl)-ethylcarbamoyl]-ethyl}-amide]
21 | < 1000 nM | Cc1cc(NC[C@H](C)NC(=O)[C@H](CC2CCCCC2)NC(=O)c2ccc(-c3cccc(F)c3)o2)sn1 [Compound 267, 5-(3-Fluoro-phenyl)-furan-2-carboxylic acid {2-cyclohexyl-1-(S)-[1-(S)-methyl-2-(3-methyl-isothiazol-5-ylamino)-ethylcarbamoyl]-ethyl}-amide]

From patent US20040248887A1, “Inhibitors of cathepsin S” (IRM LLC, priority 2003, published 2004)
